Source: publication PMC10487437 (International Journal of Molecular Sciences, 2023)
Primed or numbered codes have the meaning given here. * marks the point of attachment. Dabcyl′ = CN(C)c1ccc(/N=N/c2ccc(C(=O)*)cc2)cc1; EDANS = O=S(=O)(O)c1cccc2c(NCCN*)cccc12

B1: Dabcyl-KQ5GD-EDANS (peptide)
peptide: {Dabcyl′}-KQQQQQGD-{EDANS}
SMILES: CN(C)c1ccc(/N=N/c2ccc(C(=O)N[C@@H](CCCCN)C(=O)N[C@@H](CCC(N)=O)C(=O)N[C@@H](CCC(N)=O)C(=O)N[C@@H](CCC(N)=O)C(=O)N[C@@H](CCC(N)=O)C(=O)N[C@@H](CCC(N)=O)C(=O)NCC(=O)N[C@@H](CC(=O)O)C(=O)NCCNc3cccc4c(S(=O)(=O)O)cccc34)cc2)cc1
B2: Dabcyl-KQ10PPD-EDANS (peptide)
peptide: {Dabcyl′}-KQQQQQQQQQQPPD-{EDANS}
SMILES: CN(C)c1ccc(/N=N/c2ccc(C(=O)N[C@@H](CCCCN)C(=O)N[C@@H](CCC(N)=O)C(=O)N[C@@H](CCC(N)=O)C(=O)N[C@@H](CCC(N)=O)C(=O)N[C@@H](CCC(N)=O)C(=O)N[C@@H](CCC(N)=O)C(=O)N[C@@H](CCC(N)=O)C(=O)N[C@@H](CCC(N)=O)C(=O)N[C@@H](CCC(N)=O)C(=O)N[C@@H](CCC(N)=O)C(=O)N[C@@H](CCC(N)=O)C(=O)N3CCC[C@H]3C(=O)N3CCC[C@H]3C(=O)N[C@@H](CC(=O)O)C(=O)NCCNc3cccc4c(S(=O)(=O)O)cccc34)cc2)cc1
B3: Dabcyl-KQ10GD-EDANS (peptide)
peptide: {Dabcyl′}-KQQQQQQQQQQGD-{EDANS}
SMILES: CN(C)c1ccc(/N=N/c2ccc(C(=O)N[C@@H](CCCCN)C(=O)N[C@@H](CCC(N)=O)C(=O)N[C@@H](CCC(N)=O)C(=O)N[C@@H](CCC(N)=O)C(=O)N[C@@H](CCC(N)=O)C(=O)N[C@@H](CCC(N)=O)C(=O)N[C@@H](CCC(N)=O)C(=O)N[C@@H](CCC(N)=O)C(=O)N[C@@H](CCC(N)=O)C(=O)N[C@@H](CCC(N)=O)C(=O)N[C@@H](CCC(N)=O)C(=O)NCC(=O)N[C@@H](CC(=O)O)C(=O)NCCNc3cccc4c(S(=O)(=O)O)cccc34)cc2)cc1

Legend:
[1] = biological target: 20S proteasome (mouse (endogenous in brain)) (UniProt Q60692)
20S proteasome (mouse (endogenous in brain)), sequence (Q60692 whole entry, looked up): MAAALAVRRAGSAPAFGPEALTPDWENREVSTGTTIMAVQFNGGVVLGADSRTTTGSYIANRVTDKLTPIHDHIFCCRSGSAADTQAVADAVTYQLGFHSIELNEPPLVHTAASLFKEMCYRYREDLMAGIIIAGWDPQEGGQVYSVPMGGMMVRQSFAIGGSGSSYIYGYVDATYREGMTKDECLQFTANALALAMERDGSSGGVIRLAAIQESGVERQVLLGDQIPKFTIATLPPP

[2] = biological target: 26S proteasome (mouse (endogenous in brain)) (UniProt Q60692)
26S proteasome (mouse (endogenous in brain)), sequence (Q60692 whole entry, looked up): as above

[3] = system: T1, 20S proteasome from murine brain; test: Specific peptidase activity of 20S proteasome with additives (Table S1); format: biochemical, mouse; conditions: for Specific peptidase activity using Suc-LLVY-AMC: 20S plus additive: 0.5 µM Bortezomib, 0.1 µM MG132, 0.02% SDS or 11S (1:2, mole:mole), 20S alone 2.37 ± 0.13
T1 construct: from tissue; host or cells: mouse brain
Text: Characterization of puriﬁed proteasomes
teasomes. […] To conﬁrm that
cathepsin B [48] (Table S1).
reaction mixture for both 20S and 26S.
Table S1. Peptidase activity of the samples of 20S and 26S proteasome from murine brain.
The molar ratio between the proteasome

[4] = system: 26S proteasome from murine brain; test: Specific peptidase activity of 26S proteasome with additives (Table S1)
26S proteasome = system: T2, 26S proteasome; test: Apparent kinetic parameters of FRET substrate hydrolysis by 26S proteasome; format: biochemical, mouse; conditions: substrate 5 to 100 µM, 37 °C, means ± SEM of three independent experiments run in duplicate; for Km: Michaelis-Menten, fluorescence 340/490 nm, 1 h
T2 construct: from tissue; host or cells: mouse brain

20S proteasome [5] = system: T3, 20S proteasome; test: Apparent kinetic parameters of FRET substrate hydrolysis by 20S proteasome; format: biochemical, mouse; conditions: substrate 5 to 100 µM, 37 °C, means ± SEM of three independent experiments run in duplicate; for Km: Michaelis-Menten, fluorescence 340/490 nm, 1 h
T3 construct: from tissue; host or cells: mouse brain

20S proteasome [6] = system: T3, 20S proteasome; test: Determination of proteolysis sites of oligoglutamine peptides by LC-MS; format: biochemical, mouse; conditions: for Products of proteasomal hydrolysis identified: LC-MS, identical for all proteasome complexes (20S, 20S+11S, 26S, 26S+11S); for Peak of the starting substrate after incubation with 20S proteasome: incubation for 48 h, UPLC C18, UV-VIS and MS detection
Protocol: Next, we determined proteolysis sites for our oligoglutamine-containing peptides using liquid chromatography-mass spectrometry (LC-MS). The chromatogram of the Dabcyl-KQ5GD-EDANS solution in DMSO (Figure 3a) has a peak at the retention time of 1.69 min. According to the mass spectrum (Figure 3b), this peak corresponds to the Dabcyl-KQ5GD-EDANS (M = 1458.69 g/mole; z = 2; m/z = 729) molecule. Another fragment with m/z = 252 corresponds to the Dabcyl- (C15H14N3O), and the one with m/z = 380 corresponds to the DabcylK- (C21H26N5O2) fragment. These peaks are likely to arise due to fragmentation in a mass spectrometer since, upon hydrolysis, the masses of these fragments would be 269 and 397, respectively. After the incubation with proteasome for 48 h, the peak at 1.69 min disappeared (Figure 3c), and two other peaks appeared with retention times equal to 1.45 and 1.72 min. These peaks were assigned to the N- and C-ends of the peptide on the basis of the difference in the absorption spectra of the Dabcyl and EDANS moieties. […] Other products were not detected either at short (15 min) or longer hydrolysis times (72 h).
Next, we identified cleavage sites for the substrate with a longer oligoglutamine fragment (Figure 4). The peak with a retention time of 1.06 min (Figure 4a) that corresponds to the Dabcyl-KQ10PPD-EDANS (M = 2236.38 g/mole; z = 2; m/z = 1118) molecule (Figure 4b) disappeared after the substrate was incubated with the 20S proteasome for 48 h. Instead, two other peaks appeared, at 1.14 and 1.37 min (Figure 4c). According to UV spectra for both peaks, the fragment at 1.14 min had Dabcyl chromophore, and the second fragment carried EDANS fluorophore. Finally, according to mass calculation, the first product was attributed to the Dabcyl-KQ2 fragment (Figure 4d) and the second one to the Q7PPD-EDANS moiety (Figure 4e).
Peptide samples were analyzed on an Acquity UPLC system (Waters, Milford, MA, USA) connected to a PDA detector and TQD mass spectrometer (Waters). […] The gradient program was as follows: from 5%B to 50%B per 3 min, from 50%B to 5%B per 0.1 min, at a flow rate of 0.5 mL/min and a temperature of 35 °C. Solvent A: 20 mM formic acid in acetonitrile/water (1:20)/Solvent B: 20 mM formic acid in acetonitrile. Instrument settings and measuring parameters TQD were as follows: capillary voltage 3.5 kV; cone voltage 25 V; source temperature 120 °C; desolvation temperature 450 °C; cone gas flow 50 L/h; desolvation gas flow 800 L/h; MS1 scanning mass from 50 to 1500 Da; positive polarity. The PDA detector range was 220–500 nm. The resulting raw data were analyzed using the MassLynx software (version 4.1 SCN919).

20S+11S = system: T4, 20S+11S; test: Apparent kinetic parameters of FRET substrate hydrolysis by 20S+11S complex; format: biochemical, mouse; conditions: for Km / Vmax·10^−2: apparent, 20S+11S, molar ratio 1:4, substrate 5 to 100 µM, 37 °C, means ± SEM of three independent experiments run in duplicate; for Km: Michaelis-Menten, fluorescence 340/490 nm, 1 h; for Vmax (+11S)/Vmax: ratio of Vmax by 20S+11S to Vmax by 20S, proteasome:11S 1:4
T4 construct: from tissue; host or cells: mouse brain

26S+11S = system: T5, 26S+11S; test: Apparent kinetic parameters of FRET substrate hydrolysis by 26S+11S complex; format: biochemical, mouse; conditions: for Km / Vmax·10^−2: apparent, 26S+11S, molar ratio 1:4, substrate 5 to 100 µM, 37 °C, means ± SEM of three independent experiments run in duplicate; for Km: Michaelis-Menten, fluorescence 340/490 nm, 1 h; for Vmax (+11S)/Vmax: ratio of Vmax by 26S+11S to Vmax by 26S, proteasome:11S 1:4
T5 construct: from tissue; host or cells: mouse brain

[7] = means ± SEM of three independent experiments run in duplicate

Molecule | Km (26S proteasome) | Vmax·10^−2 (26S proteasome) | Km (20S proteasome [5]) | Vmax·10^−2 (20S proteasome [5]) | Km (20S+11S) | Vmax·10^−2 (20S+11S) | Vmax (+11S)/Vmax (20S+11S) | Km (26S+11S) | Vmax·10^−2 (26S+11S) | Vmax (+11S)/Vmax (26S+11S) | apparent Km of hydrolysis by 20S+11S (proteasome:11S 1:4) [1] | apparent Km of hydrolysis by the 20S proteasome [1] | apparent Km of hydrolysis by 26S+11S (proteasome:11S 1:4) [2] | apparent Km of hydrolysis by the 26S proteasome [2] | other results
11S regulator (PA28αβ) (from UniProt P97371 1-249; P97372 1-239) (complex) |  |  |  |  |  |  |  |  |  |  |  |  |  |  | Vmax (+11S)/Vmax of hydrolysis of Dabcyl-KQ5GD-EDANS by the 20S proteasome, proteasome:11S 1:4 [1]: 2.7; Vmax (+11S)/Vmax of hydrolysis of Dabcyl-KQ10GD-EDANS by the 20S proteasome, proteasome:11S 1:4 [1]: 1.5; Vmax (+11S)/Vmax of hydrolysis of Dabcyl-KQ10PPD-EDANS by the 20S proteasome, proteasome:11S 1:4 [1]: 2.3; Vmax (+11S)/Vmax of hydrolysis of Dabcyl-KQ5GD-EDANS by the 26S proteasome, proteasome:11S 1:4 [2]: 1; Vmax (+11S)/Vmax of hydrolysis of Dabcyl-KQ10GD-EDANS by the 26S proteasome, proteasome:11S 1:4 [2]: 1.4; Vmax (+11S)/Vmax of hydrolysis of Dabcyl-KQ10PPD-EDANS by the 26S proteasome, proteasome:11S 1:4 [2]: 2
11S: 11S proteasomal regulator (PA28) consisting of α/β subunits, isolated from mouse brain |  |  |  |  |  |  |  |  |  |  |  |  |  |  | Specific peptidase activity using Suc-LLVY-AMC [3, 7]: 8.8 ± 0.4 nM/min/µg; Specific peptidase activity using Z-LLE-AMC ([3]; 20S+11S (1:2, mole:mole), 20S alone 1.14 ± 0.02, means ± SEM of three independent experiments run in duplicate): 5.2 ± 0.1 nM/min/µg; Specific peptidase activity using Ac-RLR-AMC ([3]; 20S+11S (1:2, mole:mole), 20S alone 2.78 ± 0.07, means ± SEM of three independent experiments run in duplicate): 8.4 ± 0.2 nM/min/µg; Specific peptidase activity using Ac-RLR-AMC ([4]; 26S+11S (1:2, mole:mole), 26S alone 1.92 ± 0.06, means ± SEM of three independent experiments run in duplicate): 2.5 ± 0.2 nM/min/µg; Specific peptidase activity using Z-LLE-AMC ([4]; 26S+11S (1:2, mole:mole), 26S alone 5.4 ± 0.1, means ± SEM of three independent experiments run in duplicate): 6.7 ± 0.5 nM/min/µg
CCCCCCCCCCCCOS(=O)(=O)[O-].[Na+] [SDS] |  |  |  |  |  |  |  |  |  |  |  |  |  |  | Specific peptidase activity using Suc-LLVY-AMC [3, 7]: 34 ± 6 nM/min/µg; Increase of the activity of the 20S proteasome ([3]; in the presence of 0.02% SDS): 13–15 times; Effect on the 26S proteasome activity ([4]; in the presence of 0.02% SDS): completely inhibited
Dabcyl-KQ5GD-EDANS [internally quenched fluorogenic FRET substrate with five glutamine residues, EDANS-Dabcyl pair] | 54 ± 10 µM | 2.0 ± 0.3 10^−2 μM·min^−1 | 52 ± 8 µM | 2.3 ± 0.3 10^−2 μM·min^−1 | 60 ± 8 µM | 6.1 ± 1.4 10^−2 μM·min^−1 | 2.7 | 52 ± 10 µM | 2.1 ± 0.3 10^−2 μM·min^−1 | 1.0 |  |  |  |  | Products of proteasomal hydrolysis identified (20S proteasome [6]): Dabcyl-KQ2 and QGD-EDANS; Peak of the starting substrate after incubation with 20S proteasome (20S proteasome [6]): disappeared
Dabcyl-KQ10GD-EDANS [internally quenched fluorogenic FRET substrate with ten glutamine residues, EDANS-Dabcyl pair] | 18 ± 2 µM | 0.09 ± 0.01 10^−2 μM·min^−1 | 40 ± 3 µM | 0.61 ± 0.02 10^−2 μM·min^−1 | 64 ± 14 µM | 0.92 ± 0.15 10^−2 μM·min^−1 | 1.5 | 38 ± 9 µM | 0.12 ± 0.03 10^−2 μM·min^−1 | 1.4 |  |  |  |  | 
Dabcyl-KQ10PPD-EDANS | 24.5 ± 10 µM | 2.3 ± 0.2 10^−2 μM·min^−1 | 8.2 ± 1.5 µM | 0.73 ± 0.03 10^−2 μM·min^−1 | 5.3 ± 1.3 µM | 1.66 ± 0.07 10^−2 μM·min^−1 | 2.3 | 20 ± 4.6 µM | 4.73 ± 0.35 10^−2 μM·min^−1 | 2.0 |  |  |  |  | Products of proteasomal hydrolysis identified (20S proteasome [6]): Dabcyl-KQ2 and Q7PPD-EDANS; Peak of the starting substrate after incubation with 20S proteasome (20S proteasome [6]): disappeared
B1 |  |  |  |  |  |  |  |  |  |  | 60 µM | 52 µM | 52 µM | 54 µM | 
B2 |  |  |  |  |  |  |  |  |  |  | 5.3 µM | 8.2 µM | 20 µM | 24.5 µM | 
B3 |  |  |  |  |  |  |  |  |  |  | 64 µM | 40 µM | 38 µM | 18 µM | 
